Measurements as given in the NIST ThermoML archive (doi:10.1016/j.jct.2010.05.011).
± gives the expanded uncertainty stated by the source.

Tests used:
[1] = 101.33 kPa, Liquid; for speed of sound: Sing-around technique in a fixed-path interferometer; for mass density: Vibrating tube method; for viscosity: Capillary tube (Ostwald / Ubbelohde) method
[2] = refractive index (Na D-line) (dimensionless); details: 101.33 kPa, Liquid, Standard Abbe refractometry

CCc1cccc[n+]1C.COS(=O)(=O)[O-] [2-ethyl-1-methylpyridinium methyl sulfate]
Details	mass density, [1] [kg/m3]	refractive index, [2]	speed of sound, [1] [m/s]	viscosity, [1] [mPa·s]
293.15 K	1288.3 ± 1.5	1.52031 ± 0.00051	1869.2 ± 4.5	–
298.15 K	1284.7 ± 1.5	1.51902 ± 0.00051	1856 ± 4.5	4559 ± 420
303.15 K	1281.3 ± 1.5	1.5177 ± 0.00051	1842.4 ± 4.5	3207 ± 290
308.15 K	1277.9 ± 1.5	1.5164 ± 0.00051	1830.5 ± 4.5	2329 ± 200
313.15 K	1274.49 ± 1.4	1.51508 ± 0.00051	1818.4 ± 4.5	1728 ± 140
318.15 K	1271.15 ± 1.4	1.51374 ± 0.00051	1806.5 ± 4.5	1293 ± 100
323.15 K	1267.6 ± 1.4	1.51245 ± 0.00051	1794.9 ± 4.5	1012 ± 78
328.15 K	1264.5 ± 1.4	1.51115 ± 0.00051	1783 ± 4.5	802 ± 60
333.15 K	1261.3 ± 1.4	1.50982 ± 0.00051	1770.2 ± 4.5	646 ± 47
338.15 K	1258.1 ± 1.4	1.50852 ± 0.00051	1758.5 ± 4.5	528 ± 38
343.15 K	1254 ± 1.4	1.50722 ± 0.00051	1747 ± 4.5	437 ± 31

CCOS(=O)(=O)[O-].CCc1cccc[n+]1CC [1,2-diethylpyridinium ethylsulfate]
Details	mass density, [1] [kg/m3]	refractive index, [2]	speed of sound, [1] [m/s]	viscosity, [1] [mPa·s]
293.15 K	1223.6 ± 1.3	1.5146 ± 0.00051	1759.3 ± 4.5	–
298.15 K	1220.2 ± 1.3	1.51328 ± 0.00051	1745.6 ± 4.5	324.7 ± 22
303.15 K	1217 ± 1.3	1.51192 ± 0.00051	1731.3 ± 4.5	233.2 ± 16
308.15 K	1213.9 ± 1.3	1.51057 ± 0.00051	1718.6 ± 4.5	175.8 ± 11
313.15 K	1210.3 ± 1.3	1.5092 ± 0.00051	1705.7 ± 4.5	135.5 ± 8.6
318.15 K	1206.8 ± 1.3	1.50788 ± 0.00051	1693 ± 4.5	104 ± 6.5
323.15 K	1203.4 ± 1.3	1.50648 ± 0.00051	1680.5 ± 4.5	83.3 ± 5.2
328.15 K	1200.1 ± 1.3	1.50513 ± 0.00051	1668.1 ± 4.5	67.2 ± 4.1
333.15 K	1196.8 ± 1.3	1.50376 ± 0.00051	1656.2 ± 4.5	55 ± 3.4
338.15 K	1193.6 ± 1.3	1.50239 ± 0.00051	1644.3 ± 4.5	45.6 ± 2.8
343.15 K	1190.3 ± 1.2	1.5009 ± 0.00051	1632.7 ± 4.5	38.12 ± 2.3
